Reference: patent publication US7960393B2, “Pyrimidine derivatives useful for the treatment of diseases mediated by CRTH2” (Actimis Pharmaceuticals, Inc., priority 2002, dated 2011)
Read-outs that look alike come from different tables or passages of the source.

Legend:
[1] = target: T1, human CRTH2 (Homo sapiens, UniProt Q9Y5Y4); experiment: Measurement of Ca2+ mobilization in the human CRTH2-transfected L1.2 cell line (Assay 1); format: cell-based
T1 construct: expressed in transfected cells; host or cells: L1.2 cells, pEAK expression vector, puromycin-selected
T1 sequence (Q9Y5Y4 1-395): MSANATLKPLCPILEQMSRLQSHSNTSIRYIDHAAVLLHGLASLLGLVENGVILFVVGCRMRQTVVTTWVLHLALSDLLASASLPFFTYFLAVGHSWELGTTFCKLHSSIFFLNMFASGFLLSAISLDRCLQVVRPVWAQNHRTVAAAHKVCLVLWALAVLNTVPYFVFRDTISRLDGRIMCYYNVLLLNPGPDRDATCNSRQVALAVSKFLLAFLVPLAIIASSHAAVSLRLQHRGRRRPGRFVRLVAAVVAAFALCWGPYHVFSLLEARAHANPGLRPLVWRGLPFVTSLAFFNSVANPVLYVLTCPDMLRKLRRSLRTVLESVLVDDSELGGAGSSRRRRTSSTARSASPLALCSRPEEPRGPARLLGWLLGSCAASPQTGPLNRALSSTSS
Protocol: Human CRTH2 cDNA was amplified from human eosinophil cDNA with gene specific primers containing restriction sites for cloning into pEAK vector (Edge Bio Systems). The human CRTH2 cDNA was cloned into the mammalian expression vector pEAK. This expression plasmid (40 μg) was transfected into L1.2 cells, at a cell density of 1×10^7 cells/500 μl, by using electroporation apparatus (Gene Pulser II, BioRad) at 250V/1,000 μF. One day after the transfection, puromycin (1 μg/ml, Sigma) was added into the cell culture plates. Two weeks after the transfection, grown cells were picked up for further growth.
[Measurement of Ca^2+ Mobilization in the Human CRTH2-Transfected L1.2 Cell Line] (Assay 1)
Ca^2+ loading buffer was prepared by mixing 5 μl of Fluo-3AM (2 mM in DMSO, final 1 μM, Molecular Probes) and 10 μl of pluronic F-127 (Molecular Probes) and diluting the resulting mixture in 10 ml of Ca^2+ assay buffer (20 mM HEPES pH 7.6, 0.1% BSA, 1 mM probenecid, Hanks' solution). The CRTH2 transfected cells which were prepared in Example 1 were washed with PBS, resuspended in Ca^2+ loading buffer at 1×10^7 cells/ml, and incubated for 60 min at room temperature. After incubation, cells were washed and resuspended in Ca^2+ assay buffer, then dispensed into transparent-bottom 96-well plates (#3631, Costar) at 2×10^5 cells/well. Cells were incubated with various concentrations of test compound for 5 minutes at room temperature. The emitted 480 nm fluorescence was measured on FDSS6000, a Ca^2+-measurement apparatus (Hamamatsu Photonics, Hamamatsu, Japan).
Assay results in Assay 1 are shown in Examples and tables of the Examples below. The data corresponds to the compounds as yielded by solid phase synthesis and thus to levels of purity of about 40 to 90%. For practical reasons, the compounds are grouped in four classes of activity as follows: IC50=A(< or =)10 nM<B(< or =)100 nM<C(< or =)500 nM<D

[2] = PGD2-induced Ca2+ mobilization in CRTH2-transfected L1.2 cells, compounds as yielded by solid phase synthesis, purity about 40 to 90%, read-out: Activity class

| SMILES | IC50 [1, 2] | melting point | IC50 [1] |
| --- | --- | --- | --- |
| CN(CC(=O)NC1CCCC1)c1nc(Cc2ccc(NC(=O)c3ccc(C#N)cc3)cc2)nc(Cl)c1CC(=O)O [Example 1-27] | < 10 nM | 101 °C |  |
| CN(CC(=O)NC1CCCC1)c1nc(Cc2ccc(NC(=O)Cc3ccc(Oc4ccccc4)cc3)cc2)nc(Cl)c1CC(=O)O [Example 1-31] | 10 to 100 nM | > 123 °C |  |
| O=C(O)Cc1cnc(Cc2ccc(NC(=O)CC3CC3)cc2)nc1N1CCCC1 [Example 2-33] | 100 to 500 nM | 145 to 148 °C (dec.) |  |
| CN(CC(=O)NC1CCCC1)c1nc(Cc2ccc(NC(=O)c3ccc4ccccc4n3)cc2)nc(Cl)c1CC(=O)O [Example 1-16] | < 10 nM | 137 °C |  |
| CN(C)c1nc(Cc2ccc(NC(=O)OCc3ccc(F)cc3)cc2)ncc1CC(=O)O [Example 9-2, {4-(dimethylamino)-2-[4-({[(4-fluorobenzyl)oxy]carbonyl}amino)benzyl]pyrimidin-5-yl}acetic acid] |  | 95 to 97 °C | < 10 nM |
| CN(C)c1nc(Cc2ccc(NC(=O)c3ccc(C(F)(F)F)cc3)cc2)nc(Cl)c1CC(=O)O [Example 1-39] | < 10 nM | > 150 °C |  |
| N=C(N)Nc1ccc(C(=O)Nc2ccc(Cc3nc(Cl)c(CC(=O)O)c(N4CCCC4)n3)cc2)cc1 [Example 1-52] | > 500 nM | 176 °C |  |
| COCC(=O)Nc1ccc(Cc2ncc(CC(=O)O)c(N3CCCC3)n2)cc1 [Example 2-34] | > 500 nM | 102 to 105 °C |  |
| CN(CC(=O)NC1CCCC1)c1nc(Cc2ccc(NC(=O)c3ccccc3)cc2)nc(Cl)c1CC(=O)O [Example 1-9] | 10 to 100 nM | > 140 °C |  |
| O=C(O)Cc1c(Cl)nc(Cc2ccc(NC(=O)/C=C/c3ccc(Cl)cc3)cc2)nc1N1CCCC1 [Example 1-65] | < 10 nM | 188 to 190 °C |  |
| Cc1ccc(C(=O)Nc2ccc(Cc3nc(Cl)c(CC(=O)O)c(N(C)CC(=O)NC4CCCC4)n3)cc2)cc1 [Example 1-21] | < 10 nM | 125 °C |  |
| CCCCCC(=O)Nc1ccc(Cc2nc(Cl)c(CC(=O)O)c(N(C)CC(=O)NC3CCCC3)n2)cc1 [Example 1-12] | 100 to 500 nM | > 100 °C |  |
| CN(CC(=O)NC1CCCC1)c1nc(Cc2ccc(NC(=O)c3ccco3)cc2)nc(Cl)c1CC(=O)O [Example 1-11] | 100 to 500 nM | > 119 °C |  |
| CC(C)C(=O)Nc1ccc(Cc2nc(Cl)c(CC(=O)O)c(N(C)CC(=O)NC3CCCC3)n2)cc1 [Example 1-5] | > 500 nM | > 142 °C |  |
| CC(=O)Nc1ccc(C(=O)Nc2ccc(Cc3nc(Cl)c(CC(=O)O)c(N4CCCC4)n3)cc2)cc1 [Example 1-54] | 10 to 100 nM | 189 °C |  |
| CN(C)c1nc(Cc2ccc(NC(=O)C3CCC(C(C)(C)C)CC3)cc2)nc(Cl)c1CC(=O)O (centres unmarked) [Example 1-51] | < 10 nM | 104 °C |  |
| CN(C)c1nc(Cc2ccc(NC(=O)/C=C/c3ccc(C(F)(F)F)cc3)cc2)nc(Cl)c1CC(=O)O [Example 1-68] | < 10 nM | > 199 °C |  |

| SMILES | IC50 [1, 2] | melting point | IC50 [1] |
| --- | --- | --- | --- |
| CN(C)c1nc(Cc2ccc(NC(=O)c3ccc4ccccc4c3)cc2)ncc1CC(=O)O [Example 2-1, {4-(Dimethylamino)-2-[4-(2-naphthoylamino)benzyl]pyrimidin-5-yl}acetic acid] |  | 210 °C |  |
| CN(C)c1nc(Cc2ccc(NC(=O)c3ccc(F)c(F)c3)cc2)nc(Cl)c1CC(=O)O [Example 1-45] | < 10 nM | > 94 °C |  |
| CN(CC(=O)N1CCCC1)c1nc(Cc2ccc(NC(=O)c3ccc4ccccc4c3)cc2)nc(Cl)c1CC(=O)O [Example 1-3] | < 10 nM | 177 °C |  |
| CN(C)c1nc(Cc2ccc(NC(=O)c3ccc(Br)cc3)cc2)nc(Cl)c1CC(=O)O [Example 1-42] | < 10 nM | 100 °C |  |
| CN(CC(=O)NC1CCCC1)c1nc(Cc2ccc(NC(=O)Cc3ccc(-c4ccccc4)cc3)cc2)nc(Cl)c1CC(=O)O [Example 1-24] | 100 to 500 nM | 124 °C |  |
| CC(C)(C)CC(=O)Nc1ccc(Cc2ncc(CC(=O)O)c(N3CCCC3)n2)cc1 [Example 2-35] | 10 to 100 nM | 147 to 150 °C |  |
| CN(CC(=O)NC1CCCC1)c1nc(Cc2ccc(NC(=O)Cc3cccc(Oc4ccccc4)c3)cc2)nc(Cl)c1CC(=O)O [Example 1-30] | < 10 nM | > 118 °C |  |
| CN(CC(=O)NC1CCCC1)c1nc(Cc2ccc(NC(=O)Cc3ccc4c(c3)OCO4)cc2)nc(Cl)c1CC(=O)O [Example 1-29] | 100 to 500 nM | > 120 °C |  |
| CN(CC(=O)NC1CCCCC1)c1nc(Cc2ccc(NC(=O)c3ccc4ccccc4c3)cc2)nc(Cl)c1CC(=O)O [Example 1-8] | < 10 nM | 134 °C |  |
| CC(c1ccc(NC(=O)c2ccc(F)cc2)cc1)c1ncc(CC(=O)O)c(N(C)C)n1 (centres unmarked) [Example 2-26] | < 10 nM | 114 to 117 °C |  |
| O=C(O)Cc1cnc(Cc2ccc(NC(=O)c3ccc(C(F)(F)F)cc3)cc2)nc1N1CCCC1 [Example 2-30] | < 10 nM | 156 to 158 °C (dec.) |  |
| CN(C)c1ccc(C(=O)Nc2ccc(Cc3nc(Cl)c(CC(=O)O)c(N(C)C)n3)cc2)cc1 [Example 1-37] | < 10 nM | > 111 °C |  |
| COc1cccc(C(=O)Nc2ccc(Cc3nc(Cl)c(CC(=O)O)c(N(C)C)n3)cc2)c1 [Example 1-48] | < 10 nM | > 75 °C |  |
| CN(C)c1nc(Cc2ccc(NC(=O)c3cc(Cl)ccc3Cl)cc2)nc(Cl)c1CC(=O)O [Example 1-44] | < 10 nM | 96 °C |  |
| O=C(O)Cc1c(Cl)nc(Cc2ccc(NC(=O)c3ccc(Cl)cc3)cc2)nc1N1CCCC1 [Example 1-63] | < 10 nM | 173 °C |  |
| CN(C)c1nc(Cc2ccc(NC(=O)c3ccc4ccccc4c3)cc2)nc(Cl)c1CC(N)=O [Example 11, N-(4-{[5-(2-Amino-2-oxoethyl)-4-chloro-6-(dimethylamino)pyrimidin-2-yl]methyl}phenyl)-2-naphthamide] |  | 189 to 190 °C |  |

More lines, main results first:

| IC50 [1, 2] | melting point | SMILES | IC50 [1] |
| --- | --- | --- | --- |
| 10 to 100 nM | 144 to 147 °C | CN(C)c1nc(Cc2ccc(NC(=O)c3ccc(C(F)(F)F)cc3)cc2)nc(N2CCCC2)c1CC(=O)O [Example 7-12] |  |
| 100 to 500 nM | 150 to 152 °C | CN(C)c1nc(Cc2ccc(NC(=O)c3ccc(Cl)c(Cl)c3)cc2)nc(N2CCCC2)c1CC(=O)O [Example 7-13] |  |
| 10 to 100 nM | 158 to 160 °C | CC(C)c1nc(Cc2ccc(NC(=O)c3ccc4ccccc4c3)cc2)nc(N(C)C)c1CC(=O)O [Example 8-10] |  |
| > 500 nM | 205 to 207 °C | CN(C)c1nc(Cc2ccc(NC(=O)c3ccc4ccccc4n3)cc2)nc(N2CCOCC2)c1CC(=O)O [Example 7-17] |  |
| < 10 nM | 125 to 128 °C | COc1ccccc1/C=C/C(=O)Nc1ccc(Cc2nc(N(C)C)c(CC(=O)O)c(N3CCOCC3)n2)cc1 [Example 7-27] |  |
| 10 to 100 nM | 147 to 179 °C | CN(C)c1nc(Cc2ccc(NC(=O)c3cccc(-c4ccccc4)c3)cc2)nc(N2CCCC2)c1CC(=O)O [Example 7-15] |  |
| > 500 nM | > 70 °C | CN(CC(=O)NC1CCCC1)c1nc(Cc2ccc(NCc3ccccc3)cc2)nc(Cl)c1CC(=O)O [Example 5-2] |  |
| < 10 nM | 100 °C | CN(C)c1nc(Cc2ccc(NC(=O)OCc3ccccc3)cc2)nc(N(C)C)c1CC(=O)O [Example 9-7] |  |
| 10 to 100 nM | 151 to 153 °C | CN(C)c1nc(Cc2ccc(NC(=O)/C=C/c3ccccc3)cc2)nc(N2CCCC2)c1CC(=O)O [Example 7-11] |  |
| < 10 nM | 153 to 155 °C | CCc1nc(Cc2ccc(NC(=O)c3ccc(C(F)(F)F)cc3)cc2)nc(N(C)C)c1CC(=O)O [Example 8-9] |  |
| 10 to 100 nM | 123 to 125 °C | CN(C)c1nc(Cc2ccc(NC(=O)c3cccc(Oc4ccccc4)c3)cc2)nc(N2CCCC2)c1CC(=O)O [Example 7-23] |  |
